# Measured values as given in patent EP4793274A1, “SALT AND CRYSTAL FORM OF KIF18A INHIBITOR COMPOUND, PREPARATION METHOD THEREFOR AND USE THEREOF” (Hubei Bio-Pharmaceutical Industrial Technological Institute …, priority 2023, dated 2025).
# Where a name gives a salt, the structure may show the parent alone. Read-outs that look alike come from different tables or passages of the source.
# Legend:
# [1] = Hygroscopicity by dynamic vapor sorption (DVS); type: physicochemical; settings: for vapor sorption values: 25 °C/80% RH
# Experimental: Dynamic vapor sorption (DVS) curves were acquired on a DVS IntrInsic from Surface Measurement Systems (SMS). The relative humidity at 25 °C was corrected with the deliquescence points of LiCl, Mg(NO3)2, and KCl. Table A-5. DVS test parameters
# The percentage changes in mass of the samples when the humidity changed (0% RH to 95% RH) at a constant temperature of 25 °C were collected. 157-166.
# [2] = physchem
# Experimental: (§1) 100 mg of NaCl and 50 mg of Triton X-100 were weighed into a 50 mL volumetric flask and then completely dissolved by addition of purified water. 816 µL of 1 M hydrochloric acid was added, and the pH was adjusted to 1.8 with 1 M hydrochloric acid or 1 M NaOH solution. The mixed solution was brought to the volume by addition of purified water.
# (§2) 340 mg of anhydrous NaH2PO4 and 620 mg of NaCl were weighed into a 100 mL volumetric flask, and then completely dissolved by addition of purified water. 55.44 µL of a 50% NaOH solution was then added, and the pH was adjusted to 6.5 with 1 M hydrochloric acid or 1 M NaOH solution. The mixed solution was brought to the volume by addition of purified water. Subsequently, 110 mg of SIF powder was weighed into a 50 mL volumetric flask and completely dissolved in the solution described above, and the mixed solution was brought to the volume.
# (§3) Solids at a feeding concentration of 1 mg/mL (calculated based on free crystal form) were rotationally mixed with corresponding vehicles at room temperature. […] After sampling at each time point, the samples were centrifuged (at 10000 rpm) and filtered (through a 0.22 µm PTFE filter head), the HPLC concentrations and pH values of the filtrates were determined, and the centrifuged solid samples were subjected to XRPD analysis.
# [3] = Solid state stability (XRPD and HPLC purity); type: physicochemical
# From the text: 167-171. […] Table C-3. Summary of solid state stability evaluation
# [4] = Solubility at room temperature in water, SGF and FaSSIF (HPLC concentration, pH of filtrate, XRPD of residual solid); settings: for pH: pH of filtrate, listed as Crystal form B of sulfate
# Experimental: as §1, §2, §3
# [5] = Dynamic solubility at 37 °C in H2O, SGF, FaSSIF and FeSSIF (HPLC concentration, pH of filtrate, XRPD of residual solid); type: physicochemical; settings: for solubility at 1 h / solubility at 2 h / solubility at 4 h / solubility at 24 h / S: solubility: feeding concentration 10 mg/mL; for solubility at 1 h / solubility at 2 h / solubility at 4 h / solubility at 24 h: read-out: S: solubility; for FC: crystal form change: XRPD of residual solid; for pH: pH of filtrate
# Experimental: 0.82 mL of glacial acetic acid and 1.18 g of NaCl were added to a 100 mL volumetric flask and completely dissolved by addition of purified water.
# The solubility of each sample in H2O, SGF, FaSSIF, and FeSSIF was determined at different time points (1 h, 2 h, 4 h, and 24 h). […] 137-156. […] Table C-2. Summary of dynamic solubility test results at 37 °C
# [6] = 80 °C/sealed, 1 day, listed as Crystal form B of sulfate
# [7] = FaSSIF, 1 h, listed as Crystal form B of sulfate
# [8] = FaSSIF, 2 h, listed as Crystal form B of sulfate
# [9] = FaSSIF, 4 h, listed as Crystal form B of sulfate
# [10] = FaSSIF, 24 h, listed as Crystal form B of sulfate
# [11] = FeSSIF, 1 h, listed as Crystal form B of sulfate
# [12] = FeSSIF, 2 h, listed as Crystal form B of sulfate
# [13] = FeSSIF, 4 h, listed as Crystal form B of sulfate
# [14] = FeSSIF, 24 h, listed as Crystal form B of sulfate
# [15] = H2O, 1 h, listed as Crystal form B of sulfate
# [16] = H2O, 24 h, listed as Crystal form B of sulfate
smiles,measurement,setting,value
Cc1cc(-c2cnn(-c3ccc(NS(=O)(=O)CCO)cc3N3CCC4(CC3)CC4)c2)nc(N2CCC(F)(F)CC2)n1 [crystal form B of the sulfate],vapor sorption values,[1],0.445%
same,solubility at 2 h,[2]; fassif,61.6 µg/mL
same,solubility at 24 h,[2]; fassif,33.8 µg/mL
same,solubility at 2 h,[2]; sgf,54.5 µg/mL
same,solubility at 24 h,[2]; sgf,25 µg/mL
same,solubility at 24 h,[2]; water,0.1 µg/mL
same,HPLC results Purity (area%),"[3]; 25 °C/60% RH/open, 1 week, listed as Crystal form B of sulfate",97.97 area%
same,HPLC results Purity (area%),"[3]; 40 °C/75% RH/open, 1 week, listed as Crystal form B of sulfate",97.98 area%
same,HPLC results Purity (area%),[3]; [6],97.98 area%
same,HPLC results Relative to starting (%),[3]; [6],100.0%
same,HPLC results Purity (area%),"[3]; Starting, listed as Crystal form B of sulfate",98.00 area%
same,Crystal form,"[3]; XRPD after 25 °C/60% RH/open, 1 week, listed as Crystal form B of sulfate",Crystal form B of sulfate
same,Crystal form,"[3]; XRPD after 40 °C/75% RH/open, 1 week, listed as Crystal form B of sulfate",Crystal form B of sulfate
same,Crystal form,"[3]; XRPD after 80 °C/sealed, 1 day, listed as Crystal form B of sulfate",Crystal form B of sulfate
same,S: solubility,"[4]; H2O, 2 h, feeding concentration 1 mg/mL",<LOQ
same,pH,"[4]; FaSSIF, 2 h",6.3
same,pH,"[4]; FaSSIF, 24 h",6.2
same,pH,"[4]; H2O, 2 h",2.7
same,pH,"[4]; H2O, 24 h",2.5
same,pH,"[4]; SGF, 2 h",1.8
same,pH,"[4]; SGF, 24 h",1.8
same,solubility at 1 h,"[5]; FaSSIF, 1 h",53.9 µg/mL
same,solubility at 2 h,"[5]; FaSSIF, 2 h",36.4 µg/mL
same,solubility at 4 h,"[5]; FaSSIF, 4 h",28.1 µg/mL
same,solubility at 24 h,"[5]; FaSSIF, 24 h",13.6 µg/mL
same,solubility at 1 h,"[5]; FeSSIF, 1 h",194 µg/mL
same,solubility at 2 h,"[5]; FeSSIF, 2 h",186 µg/mL
same,solubility at 4 h,"[5]; FeSSIF, 4 h",166 µg/mL
same,solubility at 24 h,"[5]; FeSSIF, 24 h",79 µg/mL
same,solubility at 1 h,"[5]; SGF, 1 h",147 µg/mL
same,solubility at 2 h,"[5]; SGF, 2 h",82.4 µg/mL
same,solubility at 4 h,"[5]; SGF, 4 h",18.1 µg/mL
same,solubility at 24 h,"[5]; SGF, 24 h",18.5 µg/mL
same,FC: crystal form change,[5]; [7],Yes
same,FC: crystal form change,[5]; [8],Yes
same,FC: crystal form change,[5]; [9],Yes
same,FC: crystal form change,[5]; [10],Yes
same,FC: crystal form change,[5]; [11],Yes
same,FC: crystal form change,[5]; [12],Yes
same,FC: crystal form change,[5]; [13],Yes
same,FC: crystal form change,[5]; [14],Yes
same,FC: crystal form change,[5]; [15],Yes
same,FC: crystal form change,"[5]; H2O, 2 h, listed as Crystal form B of sulfate",Yes
same,FC: crystal form change,"[5]; H2O, 4 h, listed as Crystal form B of sulfate",Yes
same,FC: crystal form change,[5]; [16],Yes
same,FC: crystal form change,"[5]; SGF, 1 h, listed as Crystal form B of sulfate",Yes
same,FC: crystal form change,"[5]; SGF, 2 h, listed as Crystal form B of sulfate",Yes
same,FC: crystal form change,"[5]; SGF, 4 h, listed as Crystal form B of sulfate",Yes
same,FC: crystal form change,"[5]; SGF, 24 h, listed as Crystal form B of sulfate",Yes
same,pH,[5]; [7],2.06
same,pH,[5]; [8],2.13
same,pH,[5]; [9],2.07
same,pH,[5]; [10],2.08
same,pH,[5]; [11],4.50
same,pH,[5]; [12],4.49
same,pH,[5]; [13],4.48
same,pH,[5]; [14],4.48
same,pH,[5]; [15],1.50
same,pH,[5]; [16],1.56
same,solubility at 1 h,"[5]; water, H2O, 1 h",38.2 µg/mL
same,solubility at 2 h,"[5]; water, H2O, 2 h",18 µg/mL
same,solubility at 4 h,"[5]; water, H2O, 4 h",11.1 µg/mL
same,solubility at 24 h,"[5]; water, H2O, 24 h",3 µg/mL
Cc1cc(-c2cnn(-c3ccc(NS(=O)(=O)CCO)cc3N3CCC4(CC3)CC4)c2)nc(N2CCC(F)(F)CC2)n1 [free crystal form D],crystal form after the DVS test (XRPD),"[1]; 25 °C, 0% RH to 95% RH",converted to the free crystal forms D + J
same,vapor sorption values,[1],3.129%
same,crystal form after the stability test (XRPD),[3]; 80 °C/sealed condition for 1 day,converted to the free crystal forms J + D
same,S: solubility,"[5]; FaSSIF, 1 h, 60 min",6.5 µg/mL
same,S: solubility,"[5]; FaSSIF, 2 h, 120 min",6.5 µg/mL
same,S: solubility,"[5]; FaSSIF, 4 h, 240 min",6.3 µg/mL
same,S: solubility,"[5]; FaSSIF, 24 h, 1440 min",5 µg/mL
same,S: solubility,"[5]; FeSSIF, 1 h, 60 min",16.2 µg/mL
same,S: solubility,"[5]; FeSSIF, 2 h, 120 min",17.2 µg/mL
same,S: solubility,"[5]; FeSSIF, 4 h, 240 min",15.4 µg/mL
same,S: solubility,"[5]; FeSSIF, 24 h, 1440 min",15 µg/mL
same,S: solubility,"[5]; H2O, 1 h, 60 min",0.1 µg/mL
same,S: solubility,"[5]; H2O, 2 h, 120 min",0.1 µg/mL
same,S: solubility,"[5]; H2O, 4 h, 240 min",0.2 µg/mL
same,S: solubility,"[5]; SGF, 1 h, 60 min",6.2 µg/mL
same,S: solubility,"[5]; SGF, 2 h, 120 min",5.7 µg/mL
same,S: solubility,"[5]; SGF, 4 h, 240 min",5.9 µg/mL
same,S: solubility,"[5]; SGF, 24 h, 1440 min",5.1 µg/mL
same,FC: crystal form change,"[5]; FaSSIF, 1 h",No
same,FC: crystal form change,"[5]; FaSSIF, 2 h",No
same,FC: crystal form change,"[5]; FaSSIF, 4 h",No
same,FC: crystal form change,"[5]; FaSSIF, 24 h",No
same,FC: crystal form change,"[5]; FeSSIF, 1 h",No
same,FC: crystal form change,"[5]; FeSSIF, 2 h",No
same,FC: crystal form change,"[5]; FeSSIF, 4 h",No
same,FC: crystal form change,"[5]; FeSSIF, 24 h",No
same,FC: crystal form change,"[5]; H2O, 1 h",No
same,FC: crystal form change,"[5]; H2O, 2 h",No
same,FC: crystal form change,"[5]; H2O, 4 h",No
same,FC: crystal form change,"[5]; H2O, 24 h",No
same,FC: crystal form change,"[5]; SGF, 1 h",No
same,FC: crystal form change,"[5]; SGF, 2 h",No
same,FC: crystal form change,"[5]; SGF, 4 h",No
same,FC: crystal form change,"[5]; SGF, 24 h",No
same,pH,"[5]; FaSSIF, 1 h",6.51
same,pH,"[5]; FaSSIF, 2 h",6.53
same,pH,"[5]; FaSSIF, 4 h",6.55
same,pH,"[5]; FaSSIF, 24 h",6.49
same,pH,"[5]; FeSSIF, 1 h",4.97
same,pH,"[5]; FeSSIF, 2 h",5.01
same,pH,"[5]; FeSSIF, 4 h",4.97
same,pH,"[5]; FeSSIF, 24 h",4.96
same,pH,"[5]; H2O, 1 h",6.91
same,pH,"[5]; H2O, 2 h",7.64
same,pH,"[5]; H2O, 4 h",7.88
same,pH,"[5]; H2O, 24 h",7.65
same,pH,"[5]; SGF, 1 h",1.26
same,pH,"[5]; SGF, 2 h",1.38
same,pH,"[5]; SGF, 4 h",1.29
same,pH,"[5]; SGF, 24 h",1.32
